This test in a line: Inhibition of farnesyltransferase.
As usually defined, the pIC50 is the IC50 on a negative log10 scale, so that one unit is a factor of ten. For the compound `N#Cc1ccc(Cn2cncc2CNC2CCN(C(=O)c3cccnc3N)C2=O)cc1` (stereo not given), the pIC50 was 6.01.
Next, `Cn1cncc1C(OCc1ccc(C#N)cc1)c1ccc(C#N)c(-c2ccccc2C(F)(F)F)c1` (stereo not given): 9.09.
`N#Cc1ccc(Cn2cncc2CNC2CCN(C(=O)c3cccc(Cl)c3)C2=O)cc1` (stereo not given) showed a pIC50 of 7.57.
The compound `Cc1ccccc1-c1cc(C(OCc2ccc(Br)cc2)c2cncn2C)ccc1C#N` (stereo not given) had a pIC50 of 7.92.
The compound `CC(=O)NC1CCN(c2nc(COC(c3ccc(C#N)c(-c4ccccc4C(F)(F)F)c3)c3cncn3C)ccc2C#N)C1` (stereo not given) displayed a pIC50 of 8.76.
The result for `N#Cc1ccc(Cn2cncc2CN[C@@H]2CCN(c3ccccc3)C2=O)cc1` reads 6.69; that for `N#Cc1ccc(Cn2cncc2CNC2CCN(C(=O)c3ccccc3Cl)C2=O)cc1` (stereo not given), 7.19; that for `Cc1ccccc1COC(c1ccc(C#N)c(-c2ccccc2C)c1)c1cncn1C` (stereo not given), 7.26.
`CC(C)(C)OC(=O)NCCCN(Cc1cncn1Cc1ccc(C#N)cc1)C1CCN(Cc2cccc(Cl)c2)C1=O` (stereo not given) had a pIC50 of 8.89.
`Cn1cncc1C(OCc1ccc(C#N)c(N2CCCC(O)C2)n1)c1ccc(C#N)c(-c2ccccc2C(F)(F)F)c1` (stereo not given) returned a pIC50 of 8.88.
In turn, `CCCN(Cc1cncn1Cc1ccc(C#N)cc1)C1CCN(Cc2ccccc2)C1=O` (stereo not given) displayed a pIC50 of 7.23.
Regarding `Cc1ccccc1-c1cc(C(OCc2ccccc2Cl)c2cncn2C)ccc1C#N` (stereo not given), the pIC50 stood at 7.31.
Compound `Cn1cncc1C(OCc1ccc(C#N)cc1)c1ccc(C#N)c(-c2cccc(Cl)c2Cl)c1` (stereo not given) returned a pIC50 of 8.82.
`Cc1ccccc1-c1cc(C(OCc2cccc(Br)c2)c2cncn2C)ccc1C#N` (stereo not given) showed a pIC50 of 7.88.
Next, `N#Cc1ccc(Cn2cncc2CN(Cc2ccccc2)C2CCN(Cc3ccccc3)C2=O)cc1` (stereo not given): 7.17.
`Cc1cccc(-c2cc(C(OCc3ccc(C#N)cc3)c3cncn3C)ccc2C#N)c1C` (stereo not given): the pIC50 is on record as 8.67.
The compound `Cc1ccccc1-c1cc(C(OCc2cccc(F)c2)c2cncn2C)ccc1C#N` (stereo not given) gave a pIC50 of 7.42.
The result for `COc1ncccc1C(=O)N1CCC(NCc2cncn2Cc2ccc(C#N)cc2)C1=O` (stereo not given) reads 6.82; that for `CC(=O)N1CCN(c2nc(COC(c3ccc(C#N)c(-c4ccccc4C(F)(F)F)c3)c3cncn3C)ccc2C#N)CC1` (stereo not given), 8.58.
The result for `COc1cccc(-c2cc(C#N)ccc2COCc2cncn2Cc2ccc(C#N)cn2)c1` reads 8.35; that for `Cc1ccccc1-c1cc(C(OCc2cccc3ccccc23)c2cncn2C)ccc1C#N` (stereo not given), 7.76.
The compound `N#Cc1ccc(Cn2cncc2CNC2CCN(c3cccc(Cl)c3)C2=O)cc1` (stereo not given) showed a pIC50 of 8.08.
Next, `Cn1cncc1C(OCc1ccc(C#N)c(N2CCC(CO)CC2)n1)c1ccc(C#N)c(-c2ccccc2C(F)(F)F)c1` (stereo not given): 8.74.
Next, `N#Cc1ccc(Cn2cncc2CCN[C@@H]2CCN(Cc3ccccc3)C2=O)cc1`: 6.6; `N#Cc1ccc(Cn2cncc2CN(CCCN)C2CCN(Cc3cccc(Cl)c3)C2=O)cc1` (stereo not given): 8.12.
For the compound `CCOc1cccc(-c2cc(C#N)ccc2COCc2cncn2Cc2ccc(Cl)cc2)c1`, the pIC50 is 8.85.
Next, `N#Cc1ccc(Cn2cncc2CN(c2ccccn2)C2CCN(Cc3ccccc3)C2=O)cc1` (stereo not given): 7.28; `Cc1ccc(COC(c2ccc(C#N)c(-c3ccccc3C)c2)c2cncn2C)cc1` (stereo not given): 7.26; `CCOc1ccc(-c2cc(C#N)ccc2COCc2cncn2Cc2ccc(C#N)cc2)cc1`: 8.92.
In the case of `Cc1ccccc1-c1cc(C(OCc2cccc(I)c2)c2cncn2C)ccc1C#N` (stereo not given), the pIC50 is reported as 7.69.
Compound `Cn1cncc1C(OCc1ccc(C#N)cc1)c1ccc(C#N)c(-c2ccccc2C=O)c1` (stereo not given) registered a pIC50 of 8.72.
`N#Cc1ccc(Cn2cncc2COc2ccc(C#N)c(-c3cccc4ccccc34)c2)cc1` yielded a pIC50 of 9.42.
The result for `N#Cc1ccc(Cn2cncc2CCN[C@@H]2CCN(c3ccccc3)C2=O)cc1` reads 6.92; that for `Cn1cncc1C(OCc1ccc(C(F)(F)F)c(F)c1)c1ccc(C#N)c(-c2ccccc2C(F)(F)F)c1` (stereo not given), 8.21.
In turn, `CSc1ncccc1C(=O)N1CCC(NCc2cncn2Cc2ccc(C#N)cc2)C1=O` (stereo not given) gave a pIC50 of 7.08.
Next, `CC(C)(C)c1ccc(-c2cc(C#N)ccc2COCc2cncn2Cc2ccc(C#N)cc2)cc1`: 9.35; `Cc1ccccc1-c1cc(C(OCc2ccccc2F)c2cncn2C)ccc1C#N` (stereo not given): 7.15.
With `N#Cc1ccc(Cn2cncc2CNC2CCN(c3ccc(Cl)cc3)C2=O)cc1` (stereo not given), the pIC50 worked out at 7.68.
`N#Cc1ccc(Cn2cncc2COCc2ccc(C#N)cc2-c2cccc3c2OCO3)cc1` gave a pIC50 of 9.09.
Next, `N#Cc1ccc(Cn2cncc2COCc2ccc(C#N)cc2-c2cccc(OC(F)(F)F)c2)cc1`: 9.3; `Cn1cncc1C(OCc1ccc(C#N)c(N2CCC[C@@H]2C(=O)O)n1)c1ccc(C#N)c(-c2ccccc2C(F)(F)F)c1` (stereo not given in full): 8.44.
Turning to `Cn1cncc1C(OCc1ccc(Cl)c(Cl)c1)c1ccc(C#N)c(-c2ccccc2C(F)(F)F)c1` (stereo not given), the pIC50 was determined as 8.76.
`N#Cc1ccc(COCc2cncn2Cc2ccc(C#N)nc2)c(-c2ccc3c(c2)OCO3)c1` had a pIC50 of 8.52.
`Cn1cncc1C(OCc1ccc(C#N)cc1)c1ccc(C#N)c(-c2ccccc2CO)c1` (stereo not given) returned a pIC50 of 8.25.
Next, `Cc1ccccc1-c1cc(C(OCc2cc(Cl)cc(Cl)c2)c2cncn2C)ccc1C#N` (stereo not given): 7.72.
Next, `Cn1cncc1C(OCc1ccc(C#N)cc1)c1ccc(C#N)c(-c2cccc3ccccc23)c1` (stereo not given): 9.69; `COC(=O)c1cccc(COC(c2ccc(C#N)c(-c3ccccc3C)c2)c2cncn2C)c1` (stereo not given): 7.21.
As for `Cc1ccccc1-c1cc(C(OCc2ccc(C(C)C)cc2)c2cncn2C)ccc1C#N` (stereo not given), the pIC50 came out at 7.29.
Take `N#Cc1ccc(Cn2cncc2CNC2CCN(c3ccncc3)C2=O)cc1` (stereo not given): the pIC50 was 7.37.
With `N#Cc1ccc(Cn2cncc2CNC2CCN(Cc3ccc(Cl)cc3)C2=O)cc1` (stereo not given), the pIC50 is reported as 7.6.
In turn, `N#Cc1ccc(Cn2cncc2COCc2ccc(C#N)cc2-c2cccc3ccccc23)cc1` showed a pIC50 of 8.88.
For `N#Cc1ccc(OCc2cncn2Cc2ccc(C#N)c(-c3cccc4ccccc34)c2)cc1`, the pIC50 is 9.49.
Compound `N#Cc1ccc(Cn2cncc2CN(CCc2ccccc2)C2CCN(Cc3ccccc3)C2=O)cc1` (stereo not given) returned a negative-log IC50 (pIC50) of 7.29.
As for `N#Cc1ccc(COCc2cncn2Cc2ccc(Cl)cc2)c(-c2ccc3c(c2)OCO3)c1`, the negative logarithm of the IC50 (pIC50) was determined as 8.08.
Turning to `N#Cc1ccc(Cn2cncc2CN[C@H]2CCN(CCc3ccccc3)C2=O)cc1`, the pIC50 was 6.63.
`COc1cccc(-c2cc(C#N)ccc2COCc2cncn2Cc2ccc(C#N)nc2)c1` came in with a pIC50 of 8.82.
`Cc1ccccc1-c1cc(C(OCc2ccc(OC(F)(F)F)cc2)c2cncn2C)ccc1C#N` (stereo not given) displayed a pIC50 of 7.79.
Regarding `Cc1ccccc1-c1cc(C(OCc2ccc(Cl)cc2)c2cncn2C)ccc1C#N` (stereo not given), the pIC50 was 7.95.
`Cc1ccccc1-c1cc(C(OCc2ccccc2[N+](=O)[O-])c2cncn2C)ccc1C#N` (stereo not given) displayed a negative logarithm of the IC50 (pIC50) of 7.48.
`N#Cc1ccc(Cn2cncc2COCc2ccc(C#N)cc2-c2ccc3c(c2)OCO3)nc1` gave a pIC50 of 8.32.
`COc1ccc(-c2cc(C#N)ccc2COCc2cncn2Cc2ccc(C#N)cc2)cn1`: the pIC50 is 8.11.
Compound `N#Cc1ccc(Cn2cncc2CNC2CCN(C(=O)c3cccnc3O)C2=O)cc1` (stereo not given) returned a pIC50 of 5.17.
Turning to `Cc1ccccc1-c1cc(C(OCc2cccc3cccnc23)c2cncn2C)ccc1C#N` (stereo not given), the pIC50 is recorded as 7.22.
`N#Cc1ccc(Cn2cncc2COCc2ccc(C#N)cc2-c2ccc(OC(F)(F)F)cc2)cc1` gave a negative logarithm of the IC50 (pIC50) of 9.18.
`N#Cc1ccc(Cn2cncc2CCN[C@@H]2CCN(CCc3ccccc3)C2=O)cc1` yielded a pIC50 of 6.42.
In turn, `N#Cc1ccc(Cn2cncc2CNC2CCN(C(=O)c3cccnc3)C2=O)cc1` (stereo not given) came in with a pIC50 of 5.7.
The result for `N#Cc1ccc(Cn2cncc2CN(CCCCc2ccccc2)C2CCN(Cc3ccccc3)C2=O)cc1` (stereo not given) reads 7.38; that for `N#Cc1ccc(Cn2cncc2CNC2CCN(C(=O)c3ccc(Cl)cc3)C2=O)cc1` (stereo not given), 7.05; that for `Cn1cncc1C(OCc1ccc(C#N)c(NCc2cccc(F)c2)n1)c1ccc(C#N)c(-c2ccccc2C(F)(F)F)c1` (stereo not given), 8.
Compound `Cc1ccc(-c2cc(C#N)ccc2COCc2cncn2Cc2ccc(C#N)cc2)cc1C` returned a pIC50 of 9.22.
For `Cn1cncc1C(OCc1ccc(C#N)c(N2CCC(O)C2)n1)c1ccc(C#N)c(-c2ccccc2C(F)(F)F)c1` (stereo not given), the pIC50 is 8.45.
Take `N#Cc1ccc(Cn2cncc2CCN[C@H]2CCN(c3ccccc3)C2=O)cc1`: the pIC50 was 6.55.
As to `COC(=O)c1ccc(COC(c2ccc(C#N)c(-c3ccccc3C(F)(F)F)c2)c2cncn2C)nc1` (stereo not given), the pIC50 is on record as 8.04.
In turn, `N#Cc1ccc(Cn2cncc2CCN[C@H]2CCN(CCc3ccccc3)C2=O)cc1` gave a pIC50 of 6.61.
The compound `N#Cc1ccc(Cn2cncc2CNC2CCN(Cc3ccccc3Cl)C2=O)cc1` (stereo not given) registered a pIC50 of 8.28.
In turn, `N#Cc1ccc(OCc2cncn2Cc2ccc(C#N)c(-c3cccc4ccccc34)c2)nc1` displayed a pIC50 of 9.04.
`Cc1ccccc1-c1cc(C(OCc2ccc([N+](=O)[O-])cc2)c2cncn2C)ccc1C#N` (stereo not given) displayed a pIC50 of 8.12.
As to `Cc1ccccc1-c1cc(C(OCc2cccc(Cl)c2)c2cncn2C)ccc1C#N` (stereo not given), the pIC50 worked out at 7.72.
The compound `N#Cc1ccc(Cn2cncc2CNC2CCN(C(=O)c3cccc4ccccc34)C2=O)cc1` (stereo not given) showed a pIC50 of 7.96.
Compound `N#Cc1ccc(Cn2cncc2COCc2ccc(C#N)cc2-c2ccc3ccccc3c2)cc1` showed a pIC50 of 9.03.
`Cc1ccccc1-c1cc(C(OCc2ccc(I)cc2)c2cncn2C)ccc1C#N` (stereo not given): the pIC50 was determined as 7.88.
In the case of `Cn1cncc1C(OCc1ccc(C#N)c(NCC2CCOC2)n1)c1ccc(C#N)c(-c2ccccc2C(F)(F)F)c1` (stereo not given), the pIC50 was found to be 8.11.
Compound `COc1ccc(COC(c2ccc(C#N)c(-c3ccccc3C)c2)c2cncn2C)cc1` (stereo not given) gave a pIC50 of 7.22.
Turning to `N#Cc1ccc(Cn2cncc2CNC2CCN(C(=O)c3ccccc3)C2=O)cc1` (stereo not given), the pIC50 is on record as 6.96.
Regarding `Cc1ccccc1-c1cc(C(OCc2ccc(C(C)(C)C)cc2)c2cncn2C)ccc1C#N` (stereo not given), the pIC50 was 7.06.

The values are drawn from ChEMBL document CHEMBL1795312, “Insights into the structural requirements of farnesyltransferase inhibitors as potential anti-tumor agents based on 3D-QSAR CoMFA and CoMSIA models” (Eur J Med Chem, 2008).
